Tests used:
[1] = tested on: A-549 cells; assay: 3-BP toxicity against A-549 cells (MTT); type: cell-based
Procedure: (§1) The inhibitory activity of indole derivatives against MCT1 was determined by applying a functional 3-bromopyruvate (3-BP) cell viability assay, as described in the literature[20],[39] with minor modifications. In short, MCT1-expressing A-549 cells[14],[15] were exposed to the MCT1 substrate 3-BP, which becomes influxed by MCT1. 3-BP is toxic, leading to decreased cell viability. Functional inhibition of MCT1 results in reduced intracellular 3-BP levels and, thus, enhanced cell viability compared to no inhibition. […] Table 1 provides the half-maximal inhibition concentration (IC50) values of compounds 17–32.
(§2) A functional 3-BP cytotoxicity assay was conducted as described in the literature[20],[39] with minor modifications. Dilution series of compounds 17–32 between 1 nM and 1 μM were prepared in DPBS (Cell Clone, Genetix Biotech Asia, New Delhi India), and 10 μL of each concentration was pipetted into a colorless flat-bottom 96-well microplate (SPL Life Sciences, Gyeonggi-do, Republic of Korea). One hundred and eighty microliters of a cell suspension (5000 cells/well) of A-549 cells was added, and subsequently, 10 μL of 3-BP was added at a concentration of 1 mM (final concentration per well: 50 μM). The plate was kept for 72 h at 37 °C under a 5% CO2-humidified atmosphere. Cell viability was determined as described before[43] by adding 20 μL of a 5 mg/mL solution of MTT to each well and further incubation for 1 h. Eventually, the supernatant was removed and 100 μL of DMSO was added to each well. The absorbance was spectrophotometrically determined at 570 nm using a SpectraMax iD3 multi-mode microplate reader (Molecular Devices, San Jose, CA) with a background correction (690 nm). The determined absorbance values were correlated to the logarithmic concentrations of compounds 17–32, and IC50 values were calculated applying nonlinear regression using GraphPad Prism (version 8.4.0., San Diego, CA).

[2] = molecular target: T1, MCT1 (Homo sapiens, UniProt P53985); assay: functional 3-BP cell viability assay (MCT1 transport inhibition); type: cell-based; details: MCT1-expressing A-549 cells, 50 μM 3-BP, 72 h; read-out: MCT1 transport inhibition IC50 ± SEM
T1 construct: MCT1-expressing A-549 cells[14],[15] were exposed to the MCT1 substrate 3-BP, which becomes influxed by MCT1; endogenous in cells; host or cells: A-549 lung cancer cells (from NCCS, Pune)
T1 sequence (P53985 1-500): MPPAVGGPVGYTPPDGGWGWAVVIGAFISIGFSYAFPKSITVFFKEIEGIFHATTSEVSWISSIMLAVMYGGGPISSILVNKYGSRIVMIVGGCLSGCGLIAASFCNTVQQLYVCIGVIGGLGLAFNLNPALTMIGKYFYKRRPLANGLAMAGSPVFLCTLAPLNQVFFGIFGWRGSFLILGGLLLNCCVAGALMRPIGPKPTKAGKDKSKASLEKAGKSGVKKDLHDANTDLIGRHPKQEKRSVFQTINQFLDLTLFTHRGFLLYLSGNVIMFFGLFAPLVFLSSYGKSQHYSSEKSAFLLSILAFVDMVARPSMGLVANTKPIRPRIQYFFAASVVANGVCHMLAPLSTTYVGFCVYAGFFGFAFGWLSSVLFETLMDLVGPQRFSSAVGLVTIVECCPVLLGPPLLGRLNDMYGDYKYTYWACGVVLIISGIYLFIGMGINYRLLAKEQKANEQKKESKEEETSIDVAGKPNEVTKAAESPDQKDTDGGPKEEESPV
T1 sequence (P35613 140-385 partner limits assumed): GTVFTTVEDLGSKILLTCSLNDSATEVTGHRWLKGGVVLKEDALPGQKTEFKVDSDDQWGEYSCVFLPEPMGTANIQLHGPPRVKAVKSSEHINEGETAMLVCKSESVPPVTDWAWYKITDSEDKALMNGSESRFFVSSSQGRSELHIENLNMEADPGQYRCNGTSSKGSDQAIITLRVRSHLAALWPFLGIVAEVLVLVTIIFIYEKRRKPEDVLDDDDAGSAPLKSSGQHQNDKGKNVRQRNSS
Procedure: as §1, §2

[3] = tested on: A-549 cancer cells; assay: MTT-based cell viability assay, A-549; details: Homo sapiens, A549, 72 h, read-out: A-549 cancer cell toxicity GI50 ± SEM
Excerpt: (§3) MCT1-expressing cells have an extraordinary energy demand and rely on pyruvate metabolism, through either lactate conversion or pyruvate consumption. Inhibition of MCT1 blocks lactate and pyruvate influx into cancer cells, which prevents their processing in the TCA cycle. Over time, the viability of cells exposed to an MCT1 inhibitor is impaired due to pyruvate deprivation, which is compensated by upregulating glucose metabolism—leading to an overconsumption of glucose. To confirm the antiproliferative nature of the indole derivatives, we investigated the compounds toward the MCT1-expressing cell lines A-549[14],[15] and MCF-7.[16] Cancer cell viability was assessed via a 3-(4,5-dimethylthiazol-2-yl)-2,5-diphenyltetrazolium bromide (MTT) assay, as reported earlier.[43]
(§4) To determine the growth inhibitory potential of compounds 17–32, […] of each compound either at concentrations between 1 and 100 μM (A-549 or MCF-7) or at 10 and 50 μM (NIH/3T3) was pipetted into colorless flat-bottom 96-well microplates. Thereafter, 180 μL of a cell suspension (5000 cells/well) of either A-549, MCF-7, or NIH/3T3 cells was added and subsequently kept for 72 h at 37 °C under a 5% CO2-humidified atmosphere. The cell viability as well as the GI50 values were determined as described above.[43]

[4] = tested on: MCF-7 cancer cells; assay: MTT-based cell viability assay, MCF-7; details: Homo sapiens, MCF7, 72 h, read-out: MCF-7 cancer cell toxicity GI50 ± SEM
Excerpt: as §3, §4

[5] = molecular target: ABCB1 (Homo sapiens, UniProt P08183); assay: calcein AM assay, ABCB1-expressing A2780/ADR cells; details: screening at 10 μM, inhibitor if 20% (+SEM) reached
Excerpt: (§5) To provide a detailed picture of the pharmacological profile of the indole derivatives, we investigated their modulatory nature on the most prominent ABC transporters ABCB1 (P-glycoprotein, P-gp), ABCC1, (multidrug resistance-associated protein 1, MRP1), and ABCG2 (breast cancer resistance protein, BCRP). Here, we conducted calcein AM (ABCB1),[2],[52]−[59] daunorubicin (ABCC1),[52],[58]−[60] and pheophorbide A (ABCG2)[2],[52]−[60] assays using ABCB1-expressing A2780/ADR, ABCC1-expressing H69AR, and ABCG2-expressing MDCK II BCRP cells, respectively.
(§6) The calcein AM (ABCB1),[2],[52]−[59] daunorubicin (ABCB1[52],[60] and ABCC1[52],[58]−[60]), and pheophorbide A (ABCG2)[2],[52]−[60] assays were conducted as reported earlier. […] The data was processed using GraphPad Prism version 8.4.0, and IC50 values were determined, applying three- or four-parameter logistic equations, whatever was statistically preferred.

[6] = molecular target: ABCC1 (Homo sapiens, UniProt P33527); assay: daunorubicin assay, ABCC1-expressing H69AR cells; details: screening at 10 μM, inhibitor if 20% (+SEM) reached
ABCC1, sequence (P33527 whole entry): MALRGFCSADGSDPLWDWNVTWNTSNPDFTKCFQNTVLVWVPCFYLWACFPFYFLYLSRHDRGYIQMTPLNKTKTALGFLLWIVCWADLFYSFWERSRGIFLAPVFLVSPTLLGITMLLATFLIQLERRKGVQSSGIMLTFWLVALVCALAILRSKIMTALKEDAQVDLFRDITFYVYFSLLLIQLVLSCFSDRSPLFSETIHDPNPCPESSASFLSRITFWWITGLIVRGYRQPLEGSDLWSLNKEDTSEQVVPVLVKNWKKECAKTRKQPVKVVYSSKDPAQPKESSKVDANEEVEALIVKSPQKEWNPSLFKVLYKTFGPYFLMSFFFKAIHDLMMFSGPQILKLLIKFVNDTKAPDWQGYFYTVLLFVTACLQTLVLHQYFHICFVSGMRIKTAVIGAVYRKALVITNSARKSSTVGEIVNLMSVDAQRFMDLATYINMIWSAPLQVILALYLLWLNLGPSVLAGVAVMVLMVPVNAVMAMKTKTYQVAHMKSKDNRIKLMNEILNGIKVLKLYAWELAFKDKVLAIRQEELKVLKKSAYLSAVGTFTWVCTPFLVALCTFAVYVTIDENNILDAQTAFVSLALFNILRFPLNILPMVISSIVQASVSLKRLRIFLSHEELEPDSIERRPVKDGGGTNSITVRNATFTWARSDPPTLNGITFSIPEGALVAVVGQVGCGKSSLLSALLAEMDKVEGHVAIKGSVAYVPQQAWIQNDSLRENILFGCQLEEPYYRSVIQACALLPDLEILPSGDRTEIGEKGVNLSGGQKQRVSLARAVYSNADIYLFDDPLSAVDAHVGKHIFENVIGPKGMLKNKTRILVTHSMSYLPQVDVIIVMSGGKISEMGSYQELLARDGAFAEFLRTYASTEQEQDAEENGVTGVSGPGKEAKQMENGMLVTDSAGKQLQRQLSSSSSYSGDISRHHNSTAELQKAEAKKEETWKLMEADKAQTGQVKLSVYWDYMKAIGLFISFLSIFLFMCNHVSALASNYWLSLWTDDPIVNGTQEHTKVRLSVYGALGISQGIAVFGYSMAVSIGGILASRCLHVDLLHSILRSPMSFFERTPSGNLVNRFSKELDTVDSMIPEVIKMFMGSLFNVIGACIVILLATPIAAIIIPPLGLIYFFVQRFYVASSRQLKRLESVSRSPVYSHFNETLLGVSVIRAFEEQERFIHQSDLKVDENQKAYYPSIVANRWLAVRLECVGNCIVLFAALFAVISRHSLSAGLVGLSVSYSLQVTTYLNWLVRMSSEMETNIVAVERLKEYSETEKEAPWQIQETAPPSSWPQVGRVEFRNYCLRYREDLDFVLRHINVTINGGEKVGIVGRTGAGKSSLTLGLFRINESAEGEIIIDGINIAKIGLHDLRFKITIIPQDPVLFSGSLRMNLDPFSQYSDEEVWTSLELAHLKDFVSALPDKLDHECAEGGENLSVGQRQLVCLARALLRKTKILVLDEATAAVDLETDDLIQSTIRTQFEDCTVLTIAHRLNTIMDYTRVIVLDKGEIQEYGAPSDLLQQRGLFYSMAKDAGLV
Excerpt: as §5, §6

ABCB1, sequence (P08183 whole entry): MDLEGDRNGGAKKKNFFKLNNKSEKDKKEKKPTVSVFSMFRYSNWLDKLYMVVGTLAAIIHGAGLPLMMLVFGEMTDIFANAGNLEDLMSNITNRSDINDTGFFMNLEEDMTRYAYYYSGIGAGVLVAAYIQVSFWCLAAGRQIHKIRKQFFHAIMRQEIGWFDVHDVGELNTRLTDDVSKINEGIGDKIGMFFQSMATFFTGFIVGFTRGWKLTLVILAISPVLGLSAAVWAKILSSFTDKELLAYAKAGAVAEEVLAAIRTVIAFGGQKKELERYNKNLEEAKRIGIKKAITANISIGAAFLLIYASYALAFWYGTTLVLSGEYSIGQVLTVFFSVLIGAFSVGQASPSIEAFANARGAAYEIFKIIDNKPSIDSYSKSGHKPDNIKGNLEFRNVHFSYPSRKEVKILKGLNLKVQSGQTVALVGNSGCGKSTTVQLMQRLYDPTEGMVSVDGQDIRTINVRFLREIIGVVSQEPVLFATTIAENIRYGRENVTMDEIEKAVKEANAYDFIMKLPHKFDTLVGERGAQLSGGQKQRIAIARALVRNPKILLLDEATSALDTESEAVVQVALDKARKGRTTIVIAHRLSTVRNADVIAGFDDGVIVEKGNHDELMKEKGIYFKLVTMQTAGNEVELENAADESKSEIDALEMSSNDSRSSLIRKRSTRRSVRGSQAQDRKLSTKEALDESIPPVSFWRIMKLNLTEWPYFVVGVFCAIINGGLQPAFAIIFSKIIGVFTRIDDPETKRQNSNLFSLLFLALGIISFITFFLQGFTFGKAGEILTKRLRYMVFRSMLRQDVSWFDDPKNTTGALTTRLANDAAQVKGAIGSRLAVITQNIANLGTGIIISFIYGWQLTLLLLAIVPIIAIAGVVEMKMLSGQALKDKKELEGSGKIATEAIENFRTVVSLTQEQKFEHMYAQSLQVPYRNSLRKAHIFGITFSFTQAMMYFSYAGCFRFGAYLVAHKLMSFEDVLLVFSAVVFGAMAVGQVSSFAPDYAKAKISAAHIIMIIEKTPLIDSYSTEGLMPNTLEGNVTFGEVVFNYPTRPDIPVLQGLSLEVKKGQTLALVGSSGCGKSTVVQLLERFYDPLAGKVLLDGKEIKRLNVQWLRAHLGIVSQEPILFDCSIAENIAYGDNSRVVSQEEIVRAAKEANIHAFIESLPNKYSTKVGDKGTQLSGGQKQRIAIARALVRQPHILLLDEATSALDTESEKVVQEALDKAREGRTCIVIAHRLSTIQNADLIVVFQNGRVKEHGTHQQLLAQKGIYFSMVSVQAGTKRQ

Structure (SMILES) | GI90 of 3-BP ([1]; A-549 cells) [µM] | GI50 ([1]; Homo sapiens, A549, read-out: half-maximal growth inhibition (GI50) of 3-BP, A-549 cells) [µM] | inhibition at 50 µM ([1]; Homo sapiens, A549, 50 μM 3-BP, read-out: inhibition of A-549 cell growth) [%] | IC50 [2] [µM] | GI50 [3] [µM] | GI50 [4] [µM] | ABCB1 inhibition [5] | ABCC1 inhibition [6]
O=C(O)C(=O)CBr [3-BP, 3-bromopyruvate] | 49.8 ± 0.6 | 25 ± 0.4 | ≥ 90 |  |  |  |  | 
COC(=O)/C(C#N)=C/c1cn(CC(=O)Nc2ccccc2)c2ccccc12 [Compound 17, Methyl-2-cyano-3-(1-(2-oxo-2-(phenylamino)ethyl)-1H-indol-3-yl) Acrylate] |  |  |  | 0.314 ± 0.047 | 29.2 ± 0.2 | 15.4 ± 0.3 | X (Compounds were considered as inhibitors if they reached 20% (+SEM) inhibition compared to the reference inhibitors 33–35; X = fulfilled) | 
COC(=O)/C(C#N)=C/c1cn(CC(=O)Nc2cccc3ccccc23)c2ccccc12 [Compound 18, Methyl-2-cyano-3-(1-(2-(naphthalen-1-ylamino)-2-oxoethyl)-1H-indol-3-yl) Acrylate] |  |  |  | 0.193 ± 0.01 | 21.5 ± 0.4 | 15.4 ± 0.5 | X (Compounds were considered as inhibitors if they reached 20% (+SEM) inhibition compared to the reference inhibitors 33–35; X = fulfilled) | 
COC(=O)/C(C#N)=C/c1cn(CC(=O)Nc2ccc3ccccc3c2)c2ccccc12 [Compound 19, Methyl-2-cyano-3-(1-(2-(naphthalen-2-ylamino)-2-oxoethyl)-1H-indol-3-yl) Acrylate] |  |  |  | 0.109 ± 0.003 | 26.9 ± 0.3 | 15.5 ± 1.3 | X (Compounds were considered as inhibitors if they reached 20% (+SEM) inhibition compared to the reference inhibitors 33–35; X = fulfilled) | 
COC(=O)/C(C#N)=C/c1cn(CC(=O)Nc2ccccc2C)c2ccccc12 [Compound 20, Methyl-2-cyano-3-(1-(2-oxo-2-(o-tolylamino)ethyl)-1H-indol-3-yl) Acrylate] |  |  |  | 0.105 ± 0.006 | 28.3 ± 0.1 | 15.3 | X (Compounds were considered as inhibitors if they reached 20% (+SEM) inhibition compared to the reference inhibitors 33–35; X = fulfilled) | X (Compounds were considered as inhibitors if they reached 20% (+SEM) inhibition compared to the reference inhibitors 33–35; X = fulfilled)
COC(=O)/C(C#N)=C/c1cn(CC(=O)Nc2ccc(C)cc2)c2ccccc12 [Compound 21, Methyl-2-cyano-3-(1-(2-oxo-2-(p-tolylamino)ethyl)-1H-indol-3-yl) Acrylate] |  |  |  | 0.112 ± 0.01 | 14 ± 0.5 | 13.9 ± 0.1 | X (Compounds were considered as inhibitors if they reached 20% (+SEM) inhibition compared to the reference inhibitors 33–35; X = fulfilled) | X (Compounds were considered as inhibitors if they reached 20% (+SEM) inhibition compared to the reference inhibitors 33–35; X = fulfilled)
COC(=O)/C(C#N)=C/c1cn(CC(=O)Nc2ccc(F)cc2)c2ccccc12 [Compound 25, Methyl-2-cyano-3-(1-(2-((4-fluorophenyl)amino)-2-oxoethyl)-1H-indol-3-yl) Acrylate] |  |  |  | 0.793 ± 0.138 | 22 ± 0.6 | 15.1 ± 0.3 | X (Compounds were considered as inhibitors if they reached 20% (+SEM) inhibition compared to the reference inhibitors 33–35; X = fulfilled) | X (Compounds were considered as inhibitors if they reached 20% (+SEM) inhibition compared to the reference inhibitors 33–35; X = fulfilled)
COC(=O)/C(C#N)=C/c1cn(CC(=O)Nc2ccc(Cl)cc2)c2ccccc12 [Compound 26, Methyl-3-(1-(2-((4-chlorophenyl)amino)-2-oxoethyl)-1H-indol-3-yl)-2-cyanoacrylate] |  |  |  | 0.196 ± 0.005 | 21 ± 0.4 | 10.7 ± 0.4 | X (Compounds were considered as inhibitors if they reached 20% (+SEM) inhibition compared to the reference inhibitors 33–35; X = fulfilled) | X (Compounds were considered as inhibitors if they reached 20% (+SEM) inhibition compared to the reference inhibitors 33–35; X = fulfilled)
COC(=O)/C(C#N)=C/c1cn(CC(=O)Nc2c(Cl)cccc2Cl)c2ccccc12 [Compound 27, Methyl-2-cyano-3-(1-(2-((2,6-dichlorophenyl)amino)-2-oxoethyl)-1H-indol-3-yl) Acrylate] |  |  |  | 0.109 ± 0.002 | 25 ± 0.5 | 17.3 ± 0.6 | X (Compounds were considered as inhibitors if they reached 20% (+SEM) inhibition compared to the reference inhibitors 33–35; X = fulfilled) | X (Compounds were considered as inhibitors if they reached 20% (+SEM) inhibition compared to the reference inhibitors 33–35; X = fulfilled)
COC(=O)/C(C#N)=C/c1cn(CC(=O)Nc2ccc(Br)cc2)c2ccccc12 [Compound 28, Methyl-3-(1-(2-((4-bromophenyl)amino)-2-oxoethyl)-1H-indol-3-yl)-2-cyanoacrylate] |  |  |  | 0.287 ± 0.047 | 19.2 ± 0.2 | 9.99 ± 0.46 | X (Compounds were considered as inhibitors if they reached 20% (+SEM) inhibition compared to the reference inhibitors 33–35; X = fulfilled) | 
COC(=O)/C(C#N)=C/c1cn(CC(=O)Nc2ccccn2)c2ccccc12 [Compound 29, Methyl-2-cyano-3-(1-(2-oxo-2-(pyridin-2-ylamino)ethyl)-1H-indol-3-yl) Acrylate] |  |  |  | 0.198 ± 0.004 | 17.1 ± 0.4 | 4.32 ± 0.14 |  | 
COC(=O)/C(C#N)=C/c1cn(CC(=O)Nc2cccnc2)c2ccccc12 [Compound 32, Methyl-2-cyano-3-(1-(2-oxo-2-(pyridin-3-ylamino)ethyl)-1H-indol-3-yl) Acrylate] |  |  |  | 0.109 ± 0.003 | 19.2 ± 0.4 | 11.1 ± 0.2 | X (Compounds were considered as inhibitors if they reached 20% (+SEM) inhibition compared to the reference inhibitors 33–35; X = fulfilled) | X (Compounds were considered as inhibitors if they reached 20% (+SEM) inhibition compared to the reference inhibitors 33–35; X = fulfilled)
